Test results published in patent US20060171983A1, “Use of Vitamin D receptor activators or Vitamin D analogs to treat cardiovascular disease” (priority 2003, published 2006).
Entries after “also recorded” stand apart in the source; their conditions may differ. Like-named read-outs stand apart in the source and are kept apart here.

Assays:
[1] = tested on: bovine vascular smooth muscle cells (SMC); settings: 10^-7 to 10^-9 M, in vitro; cited from earlier work
[2] = tested on: PAI-1; assay: PAI-1 Western blot in primary culture of human coronary artery smooth muscle cells; format: cell-based; settings: 24 hr
Procedure: Human coronary artery smooth muscle cells were incubated with paricalcitol or calcitriol at the indicated concentration for 24 hr at 37° C. Samples were solubilized in SDS-PAGE sample buffer, and the protein content in each sample was determined by the Bio-Rad dye-binding protein assay. Samples were resolved by SDS-PAGE using a 4-12% gel, and proteins were electrophoretically transferred to PVDF membrane for Western blotting. The membrane was blotted for 1 h at 25° C. with 5% nonfat dry milk in PBS-T and then incubated with a mouse anti-PAI-1 monoclonal antibody in PBS-T overnight at 4° C. The membrane was washed with PBS-T and incubated with a horseradish peroxidase-labeled […] antibody for 1 h at 25° C. The membrane was then incubated with detection reagent (SuperSignal WestPico). The specific bands were visualized by exposing the paper to Kodak BioMax films.

[3] = Observational cohort study of hospitalization outcomes in hemodialysis patients; format: in vivo, human; settings: for median number of days spent in the hospital (hospital days per year) / median number of hospitalizations in a year: hemodialysis patients, FIG. 2; for fewer hospital days compared to the No Vitamin D group / fewer hospitalizations compared to the No Vitamin D group: regression analysis, FIG. 3
Description: This study was expanded to include patients who received no Vitamin D receptor activator treatment. [“Improved hospitalization outcomes in hemodialysis patients treated with paricalcitol.” J. Melnick, et al., abstract book from World Congress of Nephrology, Jun. 8-12, 2003, Berlin.

[4] = tested on: human CASMC; assay: 45Ca uptake into primary culture of human coronary artery smooth muscle cells
Procedure: Primary cultured human CASMC were grown to >80% confluence and used within five passages. Cells were treated with drugs for 5 days in the appropriate medium, and then changed back to base medium (N1: DMEM containing 1.8 mM Ca^+2 and 0.9 mM PO−4) containing 0.2 μCi/ml ^45Ca for 24 hr. Afterwards, cells were washed with PBS three times and radioactivity measured by liquid scintillation.

[5] = Active calcium transport in duodenum ex vivo; set-up: species or system rat; settings: uremic rats with SHPT
[6] = format: in vivo, rat
Procedure: It is clinically important to suppress elevated serum PTH levels in ESRD patients with established secondary hyperparathyroidism (SHPT) independent of hypercalcemia. Moreover, the 5/6 uremic rat model has effectively predicted the clinical profile of vitamin D analogues with respect to PTH and hypercalcemia. Thus, a direct comparison was conducted of paricalcitol (PARI) and doxercalciferol (DOX) in male Sprague Dawley rats subjected to 5/6 nephrectomy (surgical ablation) placed on 4 weeks of a high phosphorous diet (0.9% phos., 0.6% Ca) to establish SHPT. On Day 0, rats received vehicle (VEH; 5% ethanol, 95% propylene glycol; 0.4 ml/kg; IP) or drug (0.083, 0.17, 0.33, 0.66 mcg/kg; n=7-10/group) 3 times/week for 12 days. Blood samples were collected 24 hr post dose (Day 13). Day 0 values (mean±SEM) for: creatinine (VEH vs sham) were 1.02±0.05 vs 0.48±0.01 mg/dL; PTH, 1320±185 vs 178±11 pg/ml; blood ionized calcium (iCa; 1.26±0.01 vs 1.30±0.01 mmol/L); phosphorous (8.70±0.34 vs 7.36±0.09 mg/dL). In VEH, the ratio of Day 13/Day 0 iCa values declined to 0.93±0.02 vs 1.02±0.01 for sham; PTH and phosphorous tended to increase. […] PARI had no effect on iCa at 0.33 mcg/kg whereas the iCa ratio increased modestly to 1.05±0.02*# at 0.66 mcg/kg, less than that of DOX. The Day 13/Day 0 PTH ratios for DOX fell to 0.43±0.12, 0.26±0.06*, and 0.22±0.11* in response to 0.18, 0.33, 0.66 mcg/kg, respectively, while PARI decreased PTH ratios to 0.37±0.07*, 0.33±0.06*, 0.13±0.02*. Serum phosphorus was not affected in any treatment group. […] Thus, in the uremic rat with established SHPT, DOX suppresses serum PTH levels concomitant with dose-dependent elevations in ionized calcium greater than those caused by equal doses of. PARI. At these doses, PARI effectively reduces PTH without eliciting dose-dependent changes in ionized blood calcium. *=p<0.05 vs. VEH ANOVA; # p<0.05 unpaired t test DOX vs PARI

[7] = Vascular calcification in 5/6 nephrectomized uremic rats; format: in vivo, rat; settings: for elevation of iCa: 0.67 μg/kg; for Ca content in aorta compared to vehicle / phosphorus content in aorta compared to vehicle / 45Ca uptake in aorta rings compared to vehicle: 0.67 μg/kg i.p. 3 times/week for 2 weeks; for 45Ca uptake in aorta rings compared to vehicle: rings 3 days in 45Ca
Procedure: The 5/6 nephrectomized rats were obtained from Charles River Labs. (Wilmington, Mass.). Two weeks after nephrectomy, rats were put on a diet containing 0.9% phosphorous and 0.6% calcium for 4 weeks, followed by treatment with vehicle (5% ethanol+95% propylene glycol, 0.4 ml/kg), paricalcitol or doxercalciferol at 0.67 μg/kg, i.p., 3 times/week, for 2 weeks. Twenty-four hours after the last dosing, blood was collected via tail vein under ketamine anesthesia (50 mg/kg) and aorta collected for calcification studies. […] After the aortas were removed in a sterile manner from the rats, the aventitia was gently removed and each aorta was washed three times with medium. A segment of each aorta was processed for calcium and phoshphorus determination. A separate portion of each aorta was denuded, cut into 2-3-mm rings and placed in DMEM containing 0.2 μCi/ml ^45Ca for 3 days at 37° C. Afterwards, aortic rings were washed, dried, weighed, and then dissolved to determine radioactivity. […] Both paricalcitol and doxercalciferol at 0.67 μg/kg elevated iCa (˜25%) and suppressed PTH (>90%).

[8] = tested on: renin; assay: In vivo renin inhibition in CD-1 male mice; set-up: species or system mouse; settings: 1.5 and 3.0 μg/kg i.p. 3 times a week for three weeks
[9] = Renin mRNA expression in vitamin D-deficient rats; format: in vivo, rat; settings: 0.003-0.3 μg/kg i.p. three times per week, 2 weeks
Procedure: (§1) Weanling Sprague-Dawley male rats housed in an environment free of UV light were fed a 0.4% Ca, 0.3% P, vitamin D-deficient diet for 5 weeks, then switched to a 0.02% Ca, 0.5% P, vitamin D-deficient diet for 21 days. Rats were dosed with 0.003, 0.01, 0.03, and 0.3 μg/kg of paricalcitol, i.p., three times per week, for the final 2 weeks. A control group of animals was given vehicle only (5% ethanol/95% propylene glycol), and untreated, age-matched animals on normal diet (0.5% Ca, 0.4% P) served as normal peer control. Twenty-four hours after the last dose, the rats were anesthetized with ketamine (100 mg/kg), cardiac bled, killed by CO2, tissues collected for RNA extraction and real-time RT-PCR analysis, and serum taken for determination of calcium, phosphorus, and PTH.

[10] = tested on: renin; assay: Renin mRNA expression in vitamin D-deficient rats; format: in vivo, rat; settings: 0.003-0.3 μg/kg i.p. three times per week, 2 weeks
Procedure: as §1

[11] = tested on: 24(OH)ase; assay: Effect of drugs on the expression of 24(OH)ase; format: cell-based; settings: relative to calcitriol
Procedure: Two observations may be noted in these studies: (1) 100% inhibition of growth was never achieved even at 1 μM of any of the test compound. Confocal microscopy studies confirm that, although these drugs are potent in inducing the translocation of VDR from cytoplasm to nucleus, not all cells respond to VDRAs even after 2 h of exposure, which may explain the <100% inhibition. […] Paricalcitol is usually dosed approximately 4 fold higher than calcitriol in the clinical situation, which may translate into a 4-fold higher potency in regulating the function of smooth muscle cells.

[12] = tested on: renin gene promoter; assay: Renin promoter-luciferase reporter assay; format: cell-based
Description: (§2) Using an in vitro cell culture system, the activity of paricalcitol to suppress renin gene expression was examined using previously published techniques (1,25-Dihydroxyvitamin D3 is a negative endocrine regulator of the renin-angiotensin system, J. Clin. Invest., July 2002). […] This inhibitory effect is confirmed by renin promoter-luciferase reporter assays, which examine the activity of paricalcitol to suppress renin gene transcription.
(§3) In the present study, an investigation was made of the in vitro and in vivo activity of paricalcitol, a FDA-approved low calcemic vitamin D analog, to inhibit renin biosynthesis. To this end, As4.1-hVDR cells, a JG cell-like cell line stably transfected with human VDR, was treated with paricalcitol or 1,25(OH)2D3 at doses ranging from 10^−10 to 10^−7 M for 24 hours, and its renin-inhibiting activity was assessed by Northern blot analyses; the cells were also transfected with renin gene promoter-luciferase reporter plasmid, and luciferase activity was determined in the presence and absence of paricalcitol or 1,25(OH)2D3.

[13] = Historical cohort of vascular access changes in HD patients with AV fistula; format: in vivo, human
Procedure: Methods: A historical cohort of 2112 adult patients new to HD, with an AV fistula as the initial primary vascular access were followed over a 35-month period (January 1999 thru November 2001) using a dialysis provider database. Patients were treated with Zemplar or no vitamin D therapy; patients receiving Zemplar therapy received at least 10 doses and remained on the same therapy. Descriptive summary statistics were used to summarize baseline characteristics and the total number of vascular access changes per year between treatment modalities. In addition, regression models were used to evaluate the association between Zemplar or no vitamin D therapy and the total number of vascular access changes per year.

[14] = Dobrez et al. 2004; cited from earlier work
[15] = tested on: CYP24A1; assay: CYP24A1 mRNA expression in human CASMC (control); format: cell-based; settings: dose-dependent manner
[16] = tested on: renin mRNA expression in As4.1-hVDR cells; assay: Northern blot of renin mRNA expression in As4.1-hVDR cells; format: cell-based
Description: as §2, §3

[17] = tested on: PAI-1; assay: PAI-1 mRNA expression in human CASMC (control); format: cell-based; settings: dose-dependent manner
[18] = 1-100 nM, cells in N1 or 60% N1/40% P1 media, 5 days
[19] = 0.18 mcg/kg IP 3 times/week for 12 days
[20] = 0.33 mcg/kg IP 3 times/week for 12 days
[21] = 0.66 mcg/kg IP 3 times/week for 12 days

Structure (SMILES) | potency in reducing the PAI level [2] | median number of days spent in the hospital (hospital days per year) [3] [days] | median number of hospitalizations in a year [3] | fewer hospital days compared to the No Vitamin D group [3] [days] | fewer hospitalizations compared to the No Vitamin D group [3] | effect on 45Ca uptake [4, 18] | active calcium transport in duodenum ex vivo [5] | Day 13/Day 0 PTH ratio [6, 19] | Day 13/Day 0 PTH ratio [6, 20] | Day 13/Day 0 PTH ratio [6, 21] | elevation of iCa [7] [%] | Ca content in aorta compared to vehicle [7] [fold] | phosphorus content in aorta compared to vehicle [7] | 45Ca uptake in aorta rings compared to vehicle [7] | further results
C=C1/C(=C\C=C2/CCC[C@]3(C)[C@@H]([C@H](C)CCCC(C)(C)O)CC[C@@H]23)C[C@@H](O)C[C@@H]1O [calcitriol] | equally potent | 10.6 | 2.2 | 7.7 | no statistical difference | no significant effects |  |  |  |  |  |  |  |  | calcification of bovine vascular smooth muscle cells [1]: dose dependent increase
C=C1/C(=C\C=C2/CCC[C@]3(C)[C@@H]([C@H](C)/C=C/[C@H](C)C(C)C)CC[C@@H]23)C[C@@H](O)C[C@@H]1O [doxercalciferol] |  |  |  |  |  |  | dose-dependent increase | 0.43±0.12 | 0.26±0.06 | 0.22±0.11 | ~25 | 1.0 | 17 fold | 40 fold | 
C[C@H](/C=C/[C@H](C)C(C)(C)O)[C@H]1CC[C@H]2/C(=C/C=C3C[C@@H](O)C[C@H](O)C3)CCC[C@]12C [paricalcitol] | equally potent | 5.2 | 1.5 | 17.5 | 1.2 | no significant effects | no effect | 0.37±0.07 | 0.33±0.06 | 0.13±0.02 | ~25 | 1.6 | no significant difference | no significant difference | body weight [8]: no effect; levels of blood ionized calcium [8]: only slightly increased; calcium [9]: did not result in a significant change; serum PTH [9]: reduced serum PTH dose-dependently; renal renin mRNA expression [10]: normalized; potency on stimulating the expression of 24(OH)ase [11]: less potent than calcitriol; potency in suppressing renin gene promoter activity relative to calcitriol / 1,25(OH)2D3 [12]: comparable to that of 1,25(OH)2D3; also recorded: at least as potent as calcitriol; effect on renin gene transcription ([12]; As4.1-hVDR cells): suppresses; total number of vascular access changes (average) ([13]; HD patients with AV fistula, p=0.0034 vs no D): 0.6 changes per year; more vascular access changes in No D group than in Zemplar patients ([13]; negative binomial regression, p=0.038): 28%; hospitalizations related to cardiovascular events and non-infectious inflammations compared with calcitriol [14]: fewer hospitalizations; CYP24A1 mRNA expression [15]: stimulated; renin-inhibiting potency relative to calcitriol / 1,25(OH)2D3 [16]: comparable to that of 1,25(OH)2D3; also recorded: a bit more potent than calcitriol; effect on renin mRNA expression ([16]; 10^-10 to 10^-7 M, 24 hours): suppresses; also recorded: dose-dependently inhibits; PAI-1 mRNA expression [17]: suppressed; effect on 45Ca uptake ([4]; 100 nM, cells in N1 medium or different doses of P1 medium (20-60%)): did not show a significant effect
